These compounds were tested against T1, Nitric oxide synthase, inducible (Mus musculus, UniProt P29477) (assay: Hemoglobin Assay). Conditions: pH 7.4.
T1 sequence (P29477 whole entry): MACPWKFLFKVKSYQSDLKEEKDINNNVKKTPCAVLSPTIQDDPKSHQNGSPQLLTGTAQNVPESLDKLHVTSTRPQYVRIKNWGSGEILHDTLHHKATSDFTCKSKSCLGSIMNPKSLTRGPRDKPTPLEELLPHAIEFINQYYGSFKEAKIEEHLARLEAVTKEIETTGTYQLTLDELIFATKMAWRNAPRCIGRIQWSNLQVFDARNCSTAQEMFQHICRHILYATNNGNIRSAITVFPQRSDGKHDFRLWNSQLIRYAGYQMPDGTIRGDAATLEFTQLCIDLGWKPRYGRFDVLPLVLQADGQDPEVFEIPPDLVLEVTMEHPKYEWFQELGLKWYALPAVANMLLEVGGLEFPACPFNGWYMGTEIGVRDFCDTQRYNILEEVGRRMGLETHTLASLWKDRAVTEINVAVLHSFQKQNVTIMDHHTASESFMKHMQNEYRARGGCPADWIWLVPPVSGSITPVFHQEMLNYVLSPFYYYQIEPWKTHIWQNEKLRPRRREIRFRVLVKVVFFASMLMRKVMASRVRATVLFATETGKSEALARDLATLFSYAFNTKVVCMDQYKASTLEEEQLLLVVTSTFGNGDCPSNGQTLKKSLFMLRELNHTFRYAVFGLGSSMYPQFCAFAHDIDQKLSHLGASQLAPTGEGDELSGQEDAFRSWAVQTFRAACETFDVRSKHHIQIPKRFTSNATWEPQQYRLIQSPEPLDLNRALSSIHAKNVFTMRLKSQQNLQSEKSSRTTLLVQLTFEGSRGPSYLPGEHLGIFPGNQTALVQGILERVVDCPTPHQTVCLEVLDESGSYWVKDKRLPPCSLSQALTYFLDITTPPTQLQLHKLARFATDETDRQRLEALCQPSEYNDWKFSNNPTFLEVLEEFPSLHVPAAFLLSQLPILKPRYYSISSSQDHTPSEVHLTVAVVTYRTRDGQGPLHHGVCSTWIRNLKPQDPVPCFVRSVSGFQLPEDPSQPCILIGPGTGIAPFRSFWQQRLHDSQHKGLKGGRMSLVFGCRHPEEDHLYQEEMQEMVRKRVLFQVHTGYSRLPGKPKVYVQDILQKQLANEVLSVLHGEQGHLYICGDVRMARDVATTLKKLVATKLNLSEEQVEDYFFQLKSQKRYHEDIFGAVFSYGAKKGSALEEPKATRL
Procedure: The final volume was adjusted to 600 μL with 100 mM Hepes buffer (pH 7.4).

| SMILES | IC50 | Ki |
| --- | --- | --- |
| CC(C)(C)C(=N)NCCC[C@H](N)C(=O)O [(S)-2-Amino-5-pivalimidamidopentanoic acid (12)] | 323 µM | 146 µM |
| CCC(=N)NCCC[C@H](N)C(=O)O [(S)-2-Amino-5-propionimidamidopentanoic acid (8)] | 16.1 µM | 7.25 µM |
| CC(=N)NCCC[C@H](N)C(=O)O [(S)-5-Acetimidamido-2-aminopentanoic acid (4, L-NIO)] | 8.1 µM |  |
| CCCC(=N)NCCC[C@H](N)C(=O)O [(S)-2-Amino-5-butyrimidamidopentanoic acid (9)] | 19.1 µM | 8.61 µM |
| N=CNCCC[C@H](N)C(=O)O [(S)-2-Amino-5-formimidamidopentanoic acid (7)] | 0.4 µM | 0.18 µM |
| CC(C)C(=N)NCCC[C@H](N)C(=O)O [(S)-2-Amino-5-isobutyrimidamidopentanoic acid (10)] | 138 µM | 65.2 µM |

Reference: BindingDB's records for doi:10.1021/acs.biochem.5b00135 (Northwestern University, 2015)
